Test results: publication PMC9683716 (Science Advances, 2022)
Numbering of substitutions follows the chain as printed. “And” between values parts separate entries of the source, which are not always exact repeats. Identical values can stand only once.

Assays:
[1] = system: C. elegans N2 Bristol strain; experiment: Egg-laying assay; format: in vivo, Caenorhabditis elegans; conditions: wild-type nematodes, high concentrations
Drosophila flies = experiment: Climbing assay; format: in vivo, Drosophila melanogaster
[2] = molecular target: T1, recombinant Drosophila Naam (Drosophila melanogaster, UniProt Q9VDU7); experiment: Naam enzyme activity and inhibition assay; format: biochemical
T1 sequence (Q9VDU7 1-357): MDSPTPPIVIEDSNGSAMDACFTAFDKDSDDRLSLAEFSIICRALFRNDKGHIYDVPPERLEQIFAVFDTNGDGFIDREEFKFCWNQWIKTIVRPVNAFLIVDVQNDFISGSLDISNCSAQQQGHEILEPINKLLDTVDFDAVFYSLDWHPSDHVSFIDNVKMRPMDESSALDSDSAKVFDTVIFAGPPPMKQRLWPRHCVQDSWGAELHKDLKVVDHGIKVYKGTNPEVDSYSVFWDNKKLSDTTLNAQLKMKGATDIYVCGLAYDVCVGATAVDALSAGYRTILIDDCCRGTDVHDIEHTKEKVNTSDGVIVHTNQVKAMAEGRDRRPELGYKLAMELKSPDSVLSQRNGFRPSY

[3] = molecular target: T2, recombinant Naam A265E mutant (Drosophila melanogaster, UniProt Q9VDU7, A265E)
T2 sequence (Q9VDU7 1-357 A265E): T1 sequence (Q9VDU7 1-357) with A265E

B. burgdorferi PncA = B. burgdorferi PncA (Borreliella burgdorferi, UniProt G1FKW2); experiment: Naam inhibition assay, B. burgdorferi PncA; format: biochemical, Borrelia burgdorferi
C. elegans PNC-2 = molecular target: T3, C. elegans PNC-2 (Caenorhabditis elegans, UniProt Q7YTI0); experiment: Naam inhibition assay, C. elegans PNC-2; format: biochemical
T3 sequence (Q7YTI0 1-316): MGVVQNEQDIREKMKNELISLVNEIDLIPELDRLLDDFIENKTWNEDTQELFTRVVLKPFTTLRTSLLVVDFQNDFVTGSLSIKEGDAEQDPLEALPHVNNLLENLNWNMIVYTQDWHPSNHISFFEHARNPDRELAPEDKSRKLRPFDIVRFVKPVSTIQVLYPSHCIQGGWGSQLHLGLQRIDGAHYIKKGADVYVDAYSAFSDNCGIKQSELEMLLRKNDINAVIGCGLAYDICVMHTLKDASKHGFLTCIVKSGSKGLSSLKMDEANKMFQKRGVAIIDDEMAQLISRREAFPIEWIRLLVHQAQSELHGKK

mice = conditions: cited from earlier work
[4] = molecular target: Myzus persicae (aphid) Naam; experiment: Naam inhibition assay, aphid Naam; format: biochemical
Nan-Iav TRPV channels = conditions: cited from earlier work
C. elegans PNC-1 = molecular target: T4, C. elegans PNC-1 (Caenorhabditis elegans, UniProt Q9N426); experiment: Naam inhibition assay, C. elegans PNC-1; format: biochemical
T4 sequence (Q9N426 25-335): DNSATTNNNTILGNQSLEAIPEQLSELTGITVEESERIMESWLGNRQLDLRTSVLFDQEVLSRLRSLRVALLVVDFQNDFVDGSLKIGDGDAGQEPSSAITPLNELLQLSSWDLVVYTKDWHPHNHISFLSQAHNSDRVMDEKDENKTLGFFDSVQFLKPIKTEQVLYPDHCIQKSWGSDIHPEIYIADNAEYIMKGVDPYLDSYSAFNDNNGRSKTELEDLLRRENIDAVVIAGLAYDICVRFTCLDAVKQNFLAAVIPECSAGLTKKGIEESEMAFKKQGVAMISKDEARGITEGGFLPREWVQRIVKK

[5] = molecular target: T5, Apis mellifera (honey bee) Naam2 (Apis mellifera, UniProt A0A7M7MP11); experiment: Naam enzyme activity and inhibition assay, honey bee Naam2; format: biochemical
T5 sequence (A0A7M7MP11 1-346): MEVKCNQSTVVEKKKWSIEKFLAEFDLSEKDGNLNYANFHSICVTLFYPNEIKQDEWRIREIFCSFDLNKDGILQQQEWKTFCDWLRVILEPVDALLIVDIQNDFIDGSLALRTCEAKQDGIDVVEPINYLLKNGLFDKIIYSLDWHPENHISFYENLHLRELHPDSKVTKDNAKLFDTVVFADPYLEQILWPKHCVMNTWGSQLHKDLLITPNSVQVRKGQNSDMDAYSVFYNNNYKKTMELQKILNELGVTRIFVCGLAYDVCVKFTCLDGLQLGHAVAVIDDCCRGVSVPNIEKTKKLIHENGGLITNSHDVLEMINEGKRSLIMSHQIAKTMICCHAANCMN

[6] = molecular target: T6, Aedes albopictus (mosquito) Naam (Aedes albopictus, UniProt A0ABM2A4C4); experiment: Naam inhibition assay, mosquito Naam; format: biochemical
T6 sequence (A0ABM2A4C4 1-377): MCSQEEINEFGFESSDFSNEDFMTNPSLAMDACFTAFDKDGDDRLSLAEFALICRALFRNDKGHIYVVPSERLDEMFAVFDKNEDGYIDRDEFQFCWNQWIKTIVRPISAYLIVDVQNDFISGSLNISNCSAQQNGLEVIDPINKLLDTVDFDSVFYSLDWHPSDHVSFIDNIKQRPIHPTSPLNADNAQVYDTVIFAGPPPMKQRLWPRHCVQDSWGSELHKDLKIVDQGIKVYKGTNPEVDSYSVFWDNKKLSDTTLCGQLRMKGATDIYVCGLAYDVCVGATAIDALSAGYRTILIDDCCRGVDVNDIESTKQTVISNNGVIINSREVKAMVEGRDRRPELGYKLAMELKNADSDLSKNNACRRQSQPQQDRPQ

[7] = molecular target: Nilaparvata lugens (planthopper) Naam; experiment: Naam inhibition assay, planthopper Naam; format: biochemical
[8] = molecular target: T7, recombinant Naam T294E mutant (Drosophila melanogaster, UniProt Q9VDU7, T294E); format: biochemical
T7 sequence (Q9VDU7 1-357 T294E): T1 sequence (Q9VDU7 1-357) with T294E

Structure (SMILES): O=Cc1cccnc1 [NAH, Nicotinaldehyde]
- number of eggs laid [1]: significantly reduced the number of eggs laid
- effect on flies in climbing assays (Drosophila flies; even at 5 mM): no significant effect
- Ki [2]: 330 nM

Structure (SMILES): NC(=O)c1cccnc1 [NAM, nicotinamide]
- effect on climbing scores (Drosophila flies; 2 or 5 mM): no significant effect
- effect on climbing scores (Drosophila flies; feeding high concentrations (> 10 mM)): reduced the climbing scores
- turnover number relative to wild-type Naam ([3]; A265E substitution): ~ 22%

Structure (SMILES): NC(=O)c1cnccc1C(F)(F)F [TFNA-AM, 4-trifluoromethylnicotinamide]
- Ki (B. burgdorferi PncA): 2370 nM
- sensitivity of PNC-2 (C. elegans PNC-2): neither PNC-1 nor PNC-2 was sensitive
- LD50 (median lethal dose) (mice): > 2000 mg/kg
- Ki [4]: 80 nM
- reduction of climbing ability compared with FL (Drosophila flies; 2 mM, after 1 hour of feeding, score at 30 s): more effective than FL
- difference to FL in reduction of climbing ability (Drosophila flies; 2 mM, after 3 hours of feeding, score at 30 s): not significant
- effect on climbing scores in combination with NAM (Drosophila flies; 10 or 20 μM combined with NAM): significantly synergized the toxicity of NAM
- negative geotaxis (climbing index at 30 s) (Drosophila flies; control flies, 2 mM for 3 hours): < 15%
- climbing index (at 30 s) (Drosophila flies; in vivo): 68% and 52%
- concentration that suppressed negative geotaxis (Drosophila flies; in vivo): ≥ 20 µM
- effect of Naam knockdown on climbing index (Drosophila flies; in vivo): had no effect
- effect on negative geotaxis (Drosophila flies; in vivo): virtually abolished
- effect on negative geotaxis of Naam^A265E flies (Drosophila flies; in vivo): did not impair negative geotaxis
- sensitivity of heterozygous control flies in climbing assays (Drosophila flies; in vivo): as sensitive as wild-type flies
- effect on climbing scores, alone (Drosophila flies; low doses (10 or 20 μM) alone): negligible effects
- activation of heterologously expressed Nan-Iav TRPV channels (Nan-Iav TRPV channels): neither FL nor its metabolite TFNA-AM activates
- sensitivity of PNC-1 (C. elegans PNC-1): neither PNC-1 nor PNC-2 was sensitive
- Ki [5]: 16.7 µM
- fold less sensitive than the honey bee Naam1 ([5]; Ki Naam2 vs Naam1): 21 fold
- fold less sensitive than the aphid Naam ([5]; Ki Naam2 vs aphid Naam): 209 fold
- Ki [6]: 1090 nM
- Ki [7]: 600 nM
- resistance based on increase in Ki vs wild-type Naam [8]: 7.5 fold
- Ki [2]: 720 nM
- enzymatic activity of Naam in the presence of compound ([2]; 100 μM): markedly reduced the enzyme activity
- resistance based on increase in Ki vs wild-type Naam [3]: 415.7 fold

Structure (SMILES): O=Cc1cnccc1C(F)(F)F [TNAH, 4-(trifluoromethyl)nicotinaldehyde]
- number of eggs laid [1]: significantly reduced the number of eggs laid

Structure (SMILES): CC1=NNC(=O)N(/N=C/c2cccnc2)C1 [pymetrozine]
- sensitivity of Naam knockdown flies (Drosophila flies; in vivo): still sensitive

Structure (SMILES): CC(=O)N1C(=O)N(NCc2cccnc2)Cc2cc(C(F)(C(F)(F)F)C(F)(F)F)ccc21 [pyrifluquinazon]
- sensitivity of Naam knockdown flies (Drosophila flies; in vivo): still sensitive
